ChEMBL document CHEMBL5252531, “2015 Philip S. Portoghese Medicinal Chemistry Lectureship. Curing Hepatitis C Virus Infection with Direct-Acting Antiviral Agents: The Arc of a Medicinal Chemistry Triumph” (J Med Chem, 2016)
Converted amounts (≈) assume the structure as drawn.

Tests used:
[1] = Oral bioavailability in Sprague-Dawley rat at 10 mg/kg measured after 4 hrs; type: ADME, organism-based; conditions: in vivo
[2] = Solubility of the compound; type: physicochemical
[3] = test system: Hepatitis C virus; assay: Antiviral activity against HCV GT1b-genotype assessed as viral growth inhibition measured after 24 hrs; type: functional, organism-based, Hepacivirus hominis; conditions: for EC50: Hepatitis C virus, GT1b-genotype, 24 h
[4] = test system: Hepatitis C virus; assay: Antiviral activity against HCV GT1a-genotype assessed as inhibition of viral replication; type: functional, organism-based, Hepacivirus hominis
[5] = test system: Pregnane X receptor (Homo sapiens); assay: PXR activation
[6] = Clearance in Wistar rat at 10 mg/kg, iv measured after 4 hrs; type: ADME, organism-based; conditions: in vivo
[7] = Clearance in Wistar rat at 10 mg/kg, po measured after 4 hrs; type: ADME, organism-based; conditions: in vivo
[8] = test system: Hepatitis C virus; assay: Antiviral activity against HCV GT1b-genotype assessed as inhibition of viral replication measured after 24 hrs; type: functional, organism-based, Hepacivirus hominis
[9] = test system: Hepatitis C virus; assay: Antiviral activity against HCV genotype 1a; type: functional, organism-based, Hepacivirus hominis
[10] = Aqueous solubility of the compound at pH 2.2 measured after 24 hrs; type: physicochemical

Question: What does the source list for `COc1ccc2c(c1)[C@@H]1C[C@]1(C(=O)N1CC(C)N(C)C(C)C1)Cn1c-2c(C2CCCCC2)c2ccc(C(=O)NS(=O)(=O)N(C)C)cc21` (some centres undefined)?
Answer: bioavailability [1]: 17%; solubility [2]: 34 µg/mL (≈ 51.4 µM); EC50 [3]: 3 nM; EC50 [4]: 1 nM; EC50 [5]: > 50000 nM

Question: What does the source list for `COc1ccc2c(c1)C1CC1(C(=O)N1CC3CCC(C1)N3C)Cn1c-2c(C2CCCCC2)c2ccc(C(=O)NS(=O)(=O)N(C)C)cc21` (racemic)?
Answer: CL [6]: 20.6 mg/mL/kg; EC50 [3]: 39 nM; CL [7]: 55.4 mg/mL/kg; EC50 [4]: 16 nM

Question: What does the source list for `O=C(O)c1ccc2c(C3CCCCC3)c3n(c2c1)CC(C(=O)N1CCOCC1)Cc1ccccc1-3` (racemic)?
Answer: EC50 [8]: 200 nM; EC50 [4]: 2 nM

Question: Which EC50 [9] does the source give for `COc1ccc2c(c1)[C@@H]1C[C@]1(C(=O)N1[C@@H]3CC[C@H]1CN(C)C3)Cn1c-2c(C2CCCCC2)c2ccc(C(=O)NS(=O)(=O)N(C)C)cc21` [BECLABUVIR] here?
Answer: 200 nM

Question: What about the solubility at 24 h [10] of the same compound?
Answer: > 1600 µg/mL

Question: What about the Activity ([3]; time 24 hrs) of the same compound?
Answer: 1.3 log10 IU/mL
